The source of these data is patent publication US11458213B2, “Prostate-specific membrane antigen targeted high-affinity agents for endoradiotherapy of prostate cancer” (THE JOHNS HOPKINS UNIVERSITY, priority 2016, dated 2022).

SMILES strings stand for the structures.

One data set in a line: LogP octanol/water. The format is physicochemical.
Data set [1] deals with prostate-specific membrane antigen (PSMA) (Homo sapiens, UniProt Q04609). The data set can be described thus: Binding affinities of the representative agents (PSMA).
Data set [2] relates to PSMA-negative PC3 flu cells. As to the kind of experiment: Cell uptake in PSMA-negative PC3 flu cells. The format is cell-based. To be noted: 4 h incubation, n = 3.
A further data set concerns PSMA+ PC3 PIP cells. As to the kind of experiment: Cell binding, uptake and internalization in PSMA+ PC3 PIP cells. The data set is classed as cell-based.

Sequence of prostate-specific membrane antigen (PSMA) (Q04609 whole entry): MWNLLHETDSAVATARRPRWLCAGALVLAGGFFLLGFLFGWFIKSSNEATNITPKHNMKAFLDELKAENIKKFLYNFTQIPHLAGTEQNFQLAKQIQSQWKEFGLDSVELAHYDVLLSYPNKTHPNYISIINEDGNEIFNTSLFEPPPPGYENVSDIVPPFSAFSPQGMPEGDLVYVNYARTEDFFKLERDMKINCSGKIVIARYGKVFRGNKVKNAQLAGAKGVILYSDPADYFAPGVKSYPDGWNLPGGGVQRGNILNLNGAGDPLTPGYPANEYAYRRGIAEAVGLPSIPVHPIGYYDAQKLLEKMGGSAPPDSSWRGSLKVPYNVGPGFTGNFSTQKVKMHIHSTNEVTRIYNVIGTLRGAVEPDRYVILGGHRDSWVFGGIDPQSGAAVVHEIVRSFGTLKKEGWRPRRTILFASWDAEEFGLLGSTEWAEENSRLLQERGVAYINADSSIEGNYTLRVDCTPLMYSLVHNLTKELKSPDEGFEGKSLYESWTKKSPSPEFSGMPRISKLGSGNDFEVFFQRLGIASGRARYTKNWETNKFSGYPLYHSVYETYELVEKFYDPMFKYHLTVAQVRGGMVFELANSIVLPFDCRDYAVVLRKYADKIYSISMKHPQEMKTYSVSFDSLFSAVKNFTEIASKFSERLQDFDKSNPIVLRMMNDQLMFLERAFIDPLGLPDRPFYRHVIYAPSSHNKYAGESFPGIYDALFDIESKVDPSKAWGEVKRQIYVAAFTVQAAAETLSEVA

For the compound `O=C(O)CC[C@H](NC(=O)N[C@@H](CCCCN(Cc1ccc(Br)cc1)C(=O)CCCCNC(=O)CN1CCN(CC(=O)O)CCN(CC(=O)O)CCN(CC(=O)O)CC1)C(=O)O)C(=O)O` [Compound 2], in the data set “LogP octanol/water”, the LogPoct/water is −3.53. Moreover, in data set [1], the IC50 is 0.64 nM, the Ki is 1.28 nM and the “binding affinity for PSMA (in words)” value is on record as “higher binding affinity compared to 3”.

With `O=C([O-])CN1CCN(CC(=O)[O-])CCN(CC(=O)NCCCCC(=O)N(CCCC[C@H](NC(=O)N[C@@H](CCC(=O)O)C(=O)O)C(=O)O)Cc2ccc(Br)cc2)CCN(CC(=O)[O-])CC1.[177Lu+3]` [^177Lu-2], the “Cell uptake PSMA − PC3 flu” value in data set [2] is given as 0.12 percent incubated dose per one million cells. The “Cell uptake PSMA + PC3 PIP” value with PSMA+ PC3 PIP cells (4 h incubation, n = 3) was 40.6 percent incubated dose per one million cells. Further, the “uptake in PSMA+ PC3 cells (in words)” value with PSMA+ PC3 PIP cells (compared to ^177Lu-3) is listed as “higher uptake in PSMA+ PC3 cells compared to ^177Lu-3”.

As for `O=C([O-])CN1CCN(CC(=O)[O-])CCN(CC(=O)O)C(Cc2ccc(NC(=S)NCCCCC(=O)NCCCC[C@H](NC(=O)N[C@@H](CCC(=O)O)C(=O)O)C(=O)O)cc2)CN(CC(=O)[O-])CC1.[177Lu+3]` (stereo partly drawn) [^177Lu-3], in data set [2], the “Cell uptake PSMA − PC3 flu” value is on record as 0.05 percent incubated dose per one million cells. In the data set on PSMA+ PC3 PIP cells (4 h incubation, n = 3), the Cell surface was 12.50 percent incubated dose per one million cells, the “Cell uptake PSMA + PC3 PIP” value was 24.50 percent incubated dose per one million cells and the “Internalization (cell lysate)” value is 8.75 percent incubated dose per one million cells.

As to `O=C(O)CC[C@H](NC(=O)N[C@@H](CCCCNC(=O)CCCCNC(=S)Nc1ccc(CC2CN(CC(=O)O)CCN(CC(=O)O)CCN(CC(=O)O)CCN2CC(=O)O)cc1)C(=O)O)C(=O)O` (stereo partly drawn) [Compound 3], in the data set “LogP octanol/water”, the LogPoct/water is on record as −3.2. In data set [1], this compound displayed an IC50 of 2.16 nM and a Ki of 0.43 nM.

On to `O=C(O)CC[C@H](NC(=O)N[C@@H](CCCCN(Cc1ccc(Br)cc1)C(=O)CCCCNC(=S)Nc1ccc(CC2CN(CC(=O)O)CCN(CC(=O)O)CCN(CC(=O)O)CCN2CC(=O)O)cc1)C(=O)O)C(=O)O` (stereo partly drawn) [Compound 1], for which the LogPoct/water in the data set “LogP octanol/water” is −3.0. For the same compound, in data set [1], the IC50 was determined as 0.57 nM, the Ki stood at 1.15 nM and the “binding affinity for PSMA (in words)” value is on record as “higher binding affinity compared to 3”.
